Experiment [1] concerns the target Human RET kinase cytoplasmic domain (Homo sapiens (Human), UniProt P07949). Briefly: RET kinase enzymatic assay. As to conditions: human RET kinase enzymatic assay (Table 2). The format is biochemical. The procedure:
RET Kinase Enzymatic Assay
GST-RET was purified using glutathione sepharose chromatography. The RET kinase enzymatic assay was performed in a total volume of 10 uL with increasing concentrations of RET kinase inhibitor as a singlet in a 384 well format as follows: RET inhibitor compound plates are prepared by adding 100 nL of RET inhibitor at different concentrations to a 384-well plate. 5 μL/well of a 2× enzyme mix (50 mM HEPES (4-(2-hydroxyethyl)-1-piperazineethanesulfonic acid); 1 mM CHAPS (3[(3-cholamidopropyl)dimethylammonio]-1-propanesulfonate); 0.1 mg/mL BSA (bovine serum albumin); 1 mM DTT (dithiothreitol); 0.2 nM RET kinase) was added to the 384-well plate and incubated for 30 minutes at 23° C.

A further experiment concerns TT cells. Briefly: RET kinase cell-based proliferation assay. On the set-up: species or system human. Particulars: 192 h, read-out: RET IC50. The source says: RET Kinase Cell-Based Proliferation Assay
For experiment [2], the target named is constitutive RET kinase phosphorylation in TT cells (Homo sapiens (Human), UniProt P07949, C634W). Briefly: RET kinase cell-based mechanistic assay.
Method: RET Kinase Cell-Based Mechanistic Assay
The potency of the compound of the invention was tested for its ability to inhibit constitutive RET kinase phosphorylation in cell-based assay. […] 1.0E5 TT cells/well were plated in a 96-well cell culture plate and allowed to adhere overnight. […] IC50s were fitted using GraphPad Prism to a sigmoidal dose response.

Structures are written as SMILES. Counter-ions that a name gives are not always drawn. Like-named read-outs stand apart in the source and are kept apart here.

Sequence of constitutive RET kinase phosphorylation in TT cells (P07949 29-1114 C634W): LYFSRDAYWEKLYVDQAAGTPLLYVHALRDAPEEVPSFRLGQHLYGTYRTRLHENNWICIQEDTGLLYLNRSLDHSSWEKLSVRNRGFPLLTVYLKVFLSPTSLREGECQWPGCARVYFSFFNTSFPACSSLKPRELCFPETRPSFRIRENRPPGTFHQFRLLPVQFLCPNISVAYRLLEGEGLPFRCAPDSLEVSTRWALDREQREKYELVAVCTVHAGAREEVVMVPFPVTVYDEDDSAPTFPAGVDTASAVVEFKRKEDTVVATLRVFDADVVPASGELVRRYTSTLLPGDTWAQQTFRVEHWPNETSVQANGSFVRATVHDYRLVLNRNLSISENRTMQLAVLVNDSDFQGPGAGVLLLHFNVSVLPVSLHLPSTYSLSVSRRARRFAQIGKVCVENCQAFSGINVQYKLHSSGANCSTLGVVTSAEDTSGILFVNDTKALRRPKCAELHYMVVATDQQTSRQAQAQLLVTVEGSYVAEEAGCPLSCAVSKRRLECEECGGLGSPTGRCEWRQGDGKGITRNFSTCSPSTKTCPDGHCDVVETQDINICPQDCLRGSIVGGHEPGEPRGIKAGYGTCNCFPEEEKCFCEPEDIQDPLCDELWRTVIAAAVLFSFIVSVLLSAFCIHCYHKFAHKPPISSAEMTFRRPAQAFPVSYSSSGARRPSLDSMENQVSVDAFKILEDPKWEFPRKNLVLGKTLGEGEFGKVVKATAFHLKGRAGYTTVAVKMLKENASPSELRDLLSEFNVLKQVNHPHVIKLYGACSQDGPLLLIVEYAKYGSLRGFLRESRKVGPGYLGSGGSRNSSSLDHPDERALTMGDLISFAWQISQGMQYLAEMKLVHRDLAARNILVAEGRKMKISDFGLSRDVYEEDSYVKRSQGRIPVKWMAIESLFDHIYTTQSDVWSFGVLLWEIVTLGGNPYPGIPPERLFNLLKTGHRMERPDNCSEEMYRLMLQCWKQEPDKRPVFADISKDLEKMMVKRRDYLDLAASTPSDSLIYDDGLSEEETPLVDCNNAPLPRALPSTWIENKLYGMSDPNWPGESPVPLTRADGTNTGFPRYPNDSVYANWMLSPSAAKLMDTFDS
Sequence of Human RET kinase cytoplasmic domain (P07949 658-1114): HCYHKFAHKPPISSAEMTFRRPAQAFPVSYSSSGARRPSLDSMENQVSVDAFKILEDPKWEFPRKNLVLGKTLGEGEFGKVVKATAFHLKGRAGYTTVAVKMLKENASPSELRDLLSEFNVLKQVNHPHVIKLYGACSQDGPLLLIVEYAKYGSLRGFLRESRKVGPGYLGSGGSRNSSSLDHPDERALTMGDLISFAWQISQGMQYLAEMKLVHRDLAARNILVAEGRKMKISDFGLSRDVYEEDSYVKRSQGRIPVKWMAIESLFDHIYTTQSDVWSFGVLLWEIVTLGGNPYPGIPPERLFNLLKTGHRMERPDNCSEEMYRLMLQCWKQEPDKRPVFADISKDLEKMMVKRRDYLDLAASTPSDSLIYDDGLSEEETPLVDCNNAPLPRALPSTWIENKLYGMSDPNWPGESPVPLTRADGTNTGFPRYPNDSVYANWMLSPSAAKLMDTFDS

As a reminder, the IC50 is the point on the concentration scale where inhibition reaches its midpoint. Turning to `CCOc1cc(-c2ccc(CC(=O)Nc3ccc(C#N)c(C(F)(F)F)c3)c(F)c2)c[nH]c1=O` [Example 9, N-(4-Cyano-3-(trifluoro-methyl)phenyl)-2-(4-(5-ethoxy-6-oxo-1,6-dihydro-pyridin-3-yl)-2-fluorophenyl)acetamide], in experiment [1], the IC50 was below 100 nM.
On the same count and under the same terms, in the case of `CCOc1cc(-c2ccc(CC(=O)Nc3ccc(CC(C)(C)CO)c(C(F)(F)F)c3)c(F)c2)c[nH]c1=O` [Example 5, 2-(4-(5-Ethoxy-6-oxo-1,6-dihydropyridin-3-yl)-2-fluorophenyl)-N-(4-(3-hydroxy-2,2-dimethylpropyl)-3-(trifluoromethyl)phenyl)acetamide] it was below 100 nM; in that of `CCOc1cc(-c2ccc(CC(=O)Nc3cc(C(F)(F)F)c(F)cc3F)c(F)c2)c[nH]c1=O` [Example 24], below 100 nM.
Turning to `CCOc1cc(-c2ccc(CC(=O)Nc3cc(C(C)(C)C(F)(F)F)nn3C)c(F)c2)c[nH]c1=O` [Example 41, 2-(4-(5-ethoxy-6-oxo-1,6-dihydropyridin-3-yl)-2-fluorophenyl)-N-(1-methyl-3-(1,1,1-trifluoro-2-methylpropan-2-yl)-1H-pyrazol-5-yl)acetamide hydrochloride], the IC50 in experiment [1] was below 100 nM; in the experiment with TT cells (Homo sapiens, TT), 100 to 500 nM; in experiment [2], below 100 nM.
Consider `CCOc1cc(-c2ccc(CC(=O)Nc3ccc(CC(C)(C)CO)c(C(F)(F)F)c3)cc2F)c[nH]c1=O` [Example 6, 2-(4-(5-Ethoxy-6-oxo-1,6-dihydropyridin-3-yl)-3-fluorophenyl)-N-(4-(3-hydroxy-2,2-dimethylpropyl)-3-(trifluoromethyl)phenyl)acetamide], for which the IC50 in experiment [1] was below 100 nM.
Turning to `CCOc1cc(-c2ccc(CC(=O)Nc3cc(-n4cc(C)cn4)cc(C(F)(F)F)c3)c(F)c2)c[nH]c1=O` [Example 34, 2-(4-(5-ethoxy-6-oxo-1,6-dihydropyridin-3-yl)-2-fluorophenyl)-N-(3-(4-methyl-1H-pyrazol-1-yl)-5-(trifluoromethyl)phenyl)acetamide hydrochloride], the IC50 in experiment [1] was below 100 nM; with TT cells (Homo sapiens, TT) it was 100 to 500 nM; in experiment [2], 100 to 500 nM.
Turning to `CCOc1cc(=O)[nH]cc1-c1ccc(CC(=O)Nc2ccc(C(C)(C)C(F)(F)F)nc2)c(F)c1` [Example 37, 2-(4-(4-ethoxy-6-oxo-1,6-dihydropyridin-3-yl)-2-fluorophenyl)-N-(6-(1,1,1-trifluoro-2-methylpropan-2-yl)pyridin-3-yl)acetamide hydrochloride], the IC50 was below 100 nM in experiment [1]; 500 to 10000 nM in the experiment on TT cells (Homo sapiens, TT); 100 to 500 nM in experiment [2].
`CCOc1cc(-c2ccc(CC(=O)Nc3cc(-c4cnn(C)c4)cc(C(F)(F)F)c3)c(F)c2)c[nH]c1=O` [Example 45, 2-(4-(5-ethoxy-6-oxo-1,6-dihydropyridin-3-yl)-2-fluorophenyl)-N-(3-(1-methyl-1H-pyrazol-4-yl)-5-(trifluoromethyl)phenyl)acetamide hydrochloride]: the half-inhibitory concentration (IC50) in experiment [1] is below 100 nM; with TT cells (Homo sapiens, TT), 100 to 500 nM; in experiment [2], below 100 nM.
Turning to `CCOc1cc(=O)[nH]cc1-c1ccc(CC(=O)Nc2cnc(C(C)(C)CO)c(C(F)(F)F)c2)c(F)c1` [Example 31, 2-(4-(4-Ethoxy-6-oxo-1,6-dihydropyridin-3-yl)-2-fluorophenyl)-N-(6-(1-hydroxy-2-methylpropan-2-yl)-5-(trifluoromethyl)pyridin-3-yl)acetamide], the IC50 in experiment [1] was below 100 nM; in the experiment on TT cells (human RET kinase cell-based proliferation assay, TT cells, eight days (Table 4)), below 100 nM; in experiment [2], below 100 nM.
On to `CCOc1cc(-c2ccc(CC(=O)Nc3cc(C(C)(C)C(F)(F)F)n[nH]3)c(F)c2)c[nH]c1=O` [Example 42, 2-(4-(5-ethoxy-6-oxo-1,6-dihydropyridin-3-yl)-2-fluorophenyl)-N-(3-(1,1,1-trifluoro-2-methylpropan-2-yl)-1H-pyrazol-5-yl)acetamide hydrochloride], for which the half-maximal inhibitory concentration (IC50) in experiment [1] is below 100 nM; with TT cells (Homo sapiens, TT) it was below 100 nM; in experiment [2] it was below 100 nM.
With `CCOc1cc(-c2ccc(CC(=O)Nc3ccc(OCCO)c(C(F)(F)F)c3)c(F)c2)c[nH]c1=O` [Example 13, 2-(4-(5-Ethoxy-6-oxo-1,6-dihydropyridin-3-yl)-2-fluorophenyl)-N-(4-(2-hydroxyethoxy)-3-(trifluoromethyl)phenyl)acetamide], in experiment [1], the IC50 is below 100 nM.
Turning to `CCOc1cc(-c2ccc(CC(=O)Nc3cc(-n4cnc(C)c4)cc(C(F)(F)F)c3)c(F)c2)c[nH]c1=O` [Example 11, 2-(4-(5-Ethoxy-6-oxo-1,6-dihydropyridin-3-yl)-2-fluorophenyl)-N-(3-(4-methyl-1H-imidazol-1-yl)-5-(trifluoromethyl)phenyl)acetamide hydrochloride], the IC50 in experiment [1] was below 100 nM.
In the case of `CCOc1cc(-c2ccc(CC(=O)Nc3cc(-c4cn[nH]c4)cc(C(F)(F)F)c3)c(F)c2)c[nH]c1=O` [Example 36, N-(3-(1H-pyrazol-4-yl)-5-(trifluoromethyl)phenyl)-2-(4-(5-ethoxy-6-oxo-1,6-dihydropyridin-3-yl)-2-fluorophenyl)acetamide hydrochloride], the IC50 was below 100 nM in experiment [1]; 100 to 500 nM in the experiment with TT cells (Homo sapiens, TT); below 100 nM in experiment [2].
Consider `CCOc1cc(-c2ccc(CC(=O)Nc3ccc(Cl)c(Cl)c3)c(F)c2)c[nH]c1=O` [Example 18, N-(3,4-Dichlorophenyl)-2-(4-(5-ethoxy-6-oxo-1,6-dihydropyridin-3-yl)-2-fluorophenyl)acetamide], for which the half-inhibitory concentration (IC50) in experiment [1] is 100 to 500 nM.
Still for that read-out and setting: the figure for `CCOc1cc(-c2ccc(CC(=O)Nc3cc(-c4nn[nH]n4)cc(C(F)(F)F)c3)c(F)c2)c[nH]c1=O` [Example 44, N-(3-(2H-tetrazol-5-yl)-5-(trifluoromethyl)phenyl)-2-(4-(5-ethoxy-6-oxo-1,6-dihydropyridin-3-yl)-2-fluorophenyl)acetamide] is below 100 nM; for `CCOc1cc(-c2ccc(CC(=O)Nc3cc(F)ccc3F)c(F)c2)c[nH]c1=O` [Example 22, N-(2,5-Difluorophenyl)-2-(4-(5-ethoxy-6-oxo-1,6-dihydropyridin-3-yl)-2-fluorophenyl)acetamide] it is 500 to 10000 nM; for `CCOc1cc(-c2ccc(CC(=O)Nc3cc(C(C)(C)C(F)(F)F)on3)c(F)c2)c[nH]c1=O` [Example 19, 2-(4-(5-Ethoxy-6-oxo-1,6-dihydropyridin-3-yl)-2-fluorophenyl)-N-(5-(1,1,1-trifluoro-2-methylpropan-2-yl)isoxazol-3-yl)acetamide] it is below 100 nM.
In experiment [1], `CCOc1cc(-c2ccc(CC(=O)Nc3cnc(CC#N)c(C(F)(F)F)c3)c(F)c2)c[nH]c1=O` [Example 14, N-(6-(Cyanomethyl)-5-(trifluoromethyl)pyridin-3-yl)-2-(4-(5-ethoxy-6-oxo-1,6-dihydropyridin-3-yl)-2-fluorophenyl)acetamide hydrochloride] yielded a 50% inhibitory concentration (IC50) of 500 to 10000 nM.
In the case of `CCOc1cc(-c2ccc(CC(=O)Nc3ccc(CN4CCN(CC)CC4)c(C(F)(F)F)c3)c(F)c2)c[nH]c1=O` [Example 21, 2-(4-(5-Ethoxy-6-oxo-1,6-dihydropyridin-3-yl)-2-fluorophenyl)-N-(4-((4-ethylpiperazin-1-yl)methyl)-3-(trifluoromethyl)phenyl)acetamide, dihydrochloride], the IC50 in experiment [1] and in experiment [2] was below 100 nM each time.
In turn, `CCOc1cc(-c2ccc(CC(=O)Nc3ccc(CN(C)C)c(C(F)(F)F)c3)c(F)c2)c[nH]c1=O` [Example 17, N-(4-((Dimethylamino)methyl)-3-(trifluoromethyl)phenyl)-2-(4-(5-ethoxy-6-oxo-1,6-dihydropyridin-3-yl)-2-fluorophenyl)acetamide hydrochloride] came in with an IC50 in experiment [1] below 100 nM.
On the same count and under the same terms, the figure for `CCOc1cc(-c2ccc(CC(=O)Nc3ccc(C(N)=O)c(C(F)(F)F)c3)c(F)c2)c[nH]c1=O` [Example 23] is 100 to 500 nM.
For the compound `CCOc1cc(=O)[nH]cc1-c1ccc(CC(=O)Nc2ccc(C#N)c(C(F)(F)F)c2)cc1F` [Example 7, N-(4-Cyano-3-(trifluoromethyl)phenyl)-2-(4-(4-ethoxy-6-oxo-1,6-dihydropyridin-3-yl)-3-fluorophenyl)acetamide], in experiment [1], the half-maximal inhibitory concentration (IC50) is below 100 nM.
As to `CCOc1cc(-c2ccc(CC(=O)Nc3cc(C(F)(F)F)cc(C(F)(F)F)c3)c(F)c2)c[nH]c1=O` [Example 25], the IC50 in experiment [1] is below 100 nM.
Regarding `CCOc1ncc(NC(=O)Cc2ccc(-c3c[nH]c(=O)c(OCC)c3)cc2F)cc1C(F)(F)F` [Example 2, N-(6-Ethoxy-5-(trifluoromethyl)pyridin-3-yl)-2-(4-(5-ethoxy-6-oxo-1,6-dihydropyridin-3-yl)-2-fluorophenyl)acetamide hydrochloride], in experiment [1], the IC50 was below 100 nM.
In turn, `CCOc1cc(-c2ccc(CC(=O)Nc3ccc(Cl)c(C(F)(F)F)c3)c(F)c2)c[nH]c1=O` [Example 16, N-(4-Chloro-3-(trifluoromethyl)phenyl)-2-(4-(5-ethoxy-6-oxo-1,6-dihydropyridin-3-yl)-2-fluorophenyl)acetamide] had an IC50 in experiment [1] below 100 nM.
The compound `CCOc1cc(-c2ccc(CC(=O)Nc3cnc(C(C)(C)O)c(C(F)(F)F)c3)c(F)c2)c[nH]c1=O` [Example 1, 2-(4-(5-Ethoxy-6-oxo-1,6-dihydropyridin-3-yl)-2-fluorophenyl)-N-(6-(2-hydroxypropan-2-yl)-5-(trifluoromethyl)pyridin-3-yl)acetamide] yielded an IC50 in experiment [1] below 100 nM.

(Values after US9789100B2, “Compounds as rearranged during transfection (RET) inhibitors” (GlaxoSmithKline Intellectual Property Development Limited, priority 2013, dated 2017).)
